Results published in ChEMBL document CHEMBL5346961, “Discovery and Evaluation of 3-Quinoxalin Urea Derivatives as Potent, Selective, and Orally Available ATM Inhibitors Combined with Chemotherapy for the Treatment of Cancer via Goal-Oriented Molecule Generation and Virtual Screening” (J Med Chem, 2023).

Columns and labels:
Type in all cases: functional
HCT-116 [1] = test: Induction of apoptosis in human HCT-116 cells assessed as late apoptotic cells at 1 uM measured after 2 days by AnnexinV-FITC/PI staining based analysis (reference value: 12.2%); conditions: time 2 day
HCT-116 [2] = test: Induction of apoptosis in human HCT-116 cells assessed as viable cells at 1 uM measured after 2 days by AnnexinV-FITC/PI staining based analysis (reference value: 72.8%); conditions: HCT-116, 48 h, time 2 day, read-out: Activity
HCT-116 [3] = test: Induction of apoptosis in human HCT-116 cells assessed as late apoptotic cells at 1 uM measured after 2 days in presence of irinotecan by AnnexinV-FITC/PI staining based analysis (reference value: 12.2%); conditions: time 2 day

## CC(C)NC(=O)N(C)c1cnc2ccc(-c3ccc(OCCCN4CCCCC4)nc3)cc2n1
HCT-116 [1]
  Activity: 12.6%
HCT-116 [2]
  viability at 1 µM: 68%
HCT-116 [3]
  Activity: 30.4%
